Data on five compounds can be found in patent US12139492B2 (Endotarget Inc., priority 2021, dated 2024).

pIC50: −log10 of the molar value.

One may read the Dmax as the largest share of the target that was removed. Broadly, the DC50 is the concentration giving 50% degradation.

For one assay, the system named is JeKo-1 cells. Put plainly: Antiproliferative effect, MTS cell viability assay, JeKo-1 cells. Format: cell-based. The note with it: Homo sapiens; JeKo-1 mantle cell lymphoma cells; read-out: IC50 (anti-proliferation) JeKO-1 cells. The method in brief: (§1)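 Readout was MTS-derived formazan absorbance (490 nm) reflecting metabolically active cells. Treatment lasted 72 h over a 0–10 μM range (0.001, 0.01, 0.1, 1, 10 μM) in JeKo-1 and Mino B-cell malignancy cells.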
For orientation: Tetrazolium assays rely on reduction of a dye to a coloured formazan, in cell work by metabolically active cells.

A further assay relates to Mino cells. Put plainly: Antiproliferative effect, MTS cell viability assay, Mino cells. Format: cell-based. Particulars: Homo sapiens, MINO, Mino mantle cell lymphoma cells; read-out: IC50 (anti-proliferation) Mino cells. The method in brief:
as §1

Assay [1] concerns the target T1, BTK (Homo sapiens, UniProt Q06187). The assay can be described thus: Degradation of BTK protein in Namalwa cells (Western blot; DC50, Dmax). Particulars: for degradation of BTK protein: Namalwa B lymphocyte cells, various concentrations, 24 hours, Western blot; for DC50: read-out: DC50 (BTK degradation), concentration giving 50% reduction of BTK expression level, cell line not given; for Dmax: read-out: Dmax (BTK degradation). In general terms: Immunoblotting shows a protein as a band on a membrane.

For assay [2], the target named is T1, BTK. Put plainly: BTK degradation, DC50 and Dmax of Table 1 (cell line not given). Also noted: endogenous in cells. Format: cell-based.
Assay [3] has as its target T1, BTK. The assay can be described thus: Degradation of BTK protein in JeKo-1 cells (Western blot; DC50, Dmax). Particulars: JeKo-1 mantle cell lymphoma cells, various concentrations, 24 hours.
Procedure: (§2) Namalwa, JeKo-1, or Mino cells were plated in 24-well plates at a density of 10^5 cells/well. Media containing various drug concentrations were added on the day following plating (day 0) and allowed to incubate for 24 hours for Western blot. Media with the tested compound was changed every other day. […] Media were removed and dishes were washed with 1×DPBS. Lysates were made by adding 150 μL of complete lysis solution and scraping cells into a 1.5 mL microcentrifuge tube. Lysates were placed on a rotisserie at 4° C. for 30 min and then spun at 4° C. at 12000 rcf for 10 min. Supernatants were assayed for protein content, snap-frozen, and stored a −80° C. if not run immediately. Then 50 μg of protein was subjected to Western blot protocol. […] They were then imaged on a LICOR infrared scanner.
Assay [4] addresses T1, BTK. The assay can be described thus: Degradation of BTK protein in Mino cells (Western blot; DC50, Dmax). Particulars: Mino mantle cell lymphoma cells, various concentrations, 24 hours.
Procedure: as §2

T1 sequence (Q06187 whole entry): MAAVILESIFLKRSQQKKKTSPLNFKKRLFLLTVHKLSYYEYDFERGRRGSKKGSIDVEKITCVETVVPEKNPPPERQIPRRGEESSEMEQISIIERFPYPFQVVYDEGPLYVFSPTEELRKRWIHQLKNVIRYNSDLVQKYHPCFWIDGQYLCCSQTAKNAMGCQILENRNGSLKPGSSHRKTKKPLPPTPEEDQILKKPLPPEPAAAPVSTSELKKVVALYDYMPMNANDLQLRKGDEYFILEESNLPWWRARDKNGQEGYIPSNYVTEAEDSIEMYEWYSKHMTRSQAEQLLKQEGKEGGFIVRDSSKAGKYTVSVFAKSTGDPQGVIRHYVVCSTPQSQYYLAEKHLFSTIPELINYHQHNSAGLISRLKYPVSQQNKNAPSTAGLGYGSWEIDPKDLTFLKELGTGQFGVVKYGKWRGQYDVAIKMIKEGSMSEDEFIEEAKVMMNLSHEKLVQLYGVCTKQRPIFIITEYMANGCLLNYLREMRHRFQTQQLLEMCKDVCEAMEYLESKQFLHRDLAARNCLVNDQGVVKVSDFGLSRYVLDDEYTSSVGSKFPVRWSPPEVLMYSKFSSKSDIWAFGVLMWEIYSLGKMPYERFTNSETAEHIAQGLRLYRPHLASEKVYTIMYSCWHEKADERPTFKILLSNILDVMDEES

For the compound `Nc1ncnc2c1c(-c1ccc(Oc3ccccc3)cc1)nn2C1CCN(C(=O)N2CCC(CN3CCN(c4ccc5c(c4)CN(C4CCC(=O)NC4=O)C5=O)CC3)CC2)CC1` (stereo not shown) [Compound 86, 3-(5-(4-((1-(4-(4-amino-3-(4-phenoxyphenyl)-1H-pyrazolo(3,4-d)pyrimidin-1-yl)piperidine-1-carbonyl)piperidin-4-yl)methyl)piperazin-1-yl)-1-oxoisoindolin-2-yl)piperidine-2,6-dione], the pIC50 with JeKo-1 cells and in the assay on Mino cells was greater than 6.00 each time. Further, the “degradation of BTK protein” value at BTK [1] and at BTK [3] was “dose-dependent degradation” throughout. This compound also came in with a Dmax at BTK [2] greater than 90%. Also, the DC50 on BTK [2] (concentration giving 50% reduction of BTK expression level) was less than 10 nM.
For `Nc1ncnc2c1c(-c1ccc(Oc3ccccc3)cc1)nn2C1CCN(C2CCN(CC3CCN(c4ccc5c(c4)C(=O)N(C4CCC(=O)NC4=O)C5=O)CC3)C2)CC1` (stereo not shown) [Compound 449, 5-(4-((3-(4-(4-amino-3-(4-phenoxyphenyl)-1H-pyrazolo(3,4-d)pyrimidin-1-yl)piperidin-1-yl)pyrrolidin-1-yl)methyl)piperidin-1-yl)-2-(2,6-dioxopiperidin-3-yl)isoindoline-1,3-dione], the pIC50 in the assay with JeKo-1 cells was greater than 6.00. Further, the pIC50 in the assay on Mino cells was greater than 6.00. Also, at BTK [1], the “degradation of BTK protein” value is on record as “dose-dependent degradation”, the DC50 is less than 10 nM and the Dmax was greater than 90%. For the same compound, the “degradation of BTK protein” value at BTK [4] is “dose-dependent degradation”.
In the case of `Nc1ncnc2c1c(-c1ccc(Oc3ccccc3)cc1)nn2C1CCN(C(=O)N2CC(N3CCN(c4ccc5c(c4)C(=O)N(C4CCC(=O)NC4=O)C5=O)CC3)C2)CC1` (stereo not shown) [Compound 477, 5-(4-(1-(4-(4-amino-3-(4-phenoxyphenyl)-1H-pyrazolo[3,4-d]pyrimidin-1-yl)piperidine-1-carbonyl)azetidin-3-yl)piperazin-1-yl)-2-(2,6-dioxopiperidin-3-yl)isoindoline-1,3-dione], the pIC50 in the assay on JeKo-1 cells and in the assay with Mino cells was greater than 6.00 throughout. Besides, at BTK [1], the DC50 is less than 10 nM. Further, the Dmax at BTK [1] is greater than 90%. At BTK [4], the “degradation of BTK protein” value is “dose-dependent degradation”.
In the case of `Nc1ncnc2c1c(-c1ccc(Oc3ccccc3)cc1)nn2C1CCN(C(=O)N2CC(N3CCN(c4ccc5c(c4)CN(C4CCC(=O)NC4=O)C5=O)CC3)C2)CC1` (stereo not shown) [Compound 478, 3-(5-(4-(1-(4-(4-amino-3-(4-phenoxyphenyl)-1H-pyrazolo[3,4-d]pyrimidin-1-yl)piperidine-1-carbonyl)azetidin-3-yl)piperazin-1-yl)-1-oxoisoindolin-2-yl)piperidine-2,6-dione], in the assay on JeKo-1 cells, the pIC50 is greater than 6.00. The pIC50 in the assay on Mino cells is greater than 6.00. Also, on BTK [1], the “degradation of BTK protein” value is recorded as “dose-dependent degradation”, the DC50 was less than 10 nM and the Dmax was greater than 90%. The “degradation of BTK protein” value at BTK [4] was “dose-dependent degradation”.
On to `Nc1ncnc2c1c(-c1ccc(Oc3ccccc3)cc1)nn2C1CCN(C(=O)N2CC(N3CCN(c4ccc5c(c4)CN([C@H]4CCC(=O)NC4=O)C5=O)CC3)C2)CC1` [Compound 484, (S)-3-(5-(4-(1-(4-(4-amino-3-(4-phenoxyphenyl)-1H-pyrazolo[3,4-d]pyrimidin-1-yl)piperidine-1-carbonyl)azetidin-3-yl)piperazin-1-yl)-1-oxoisoindolin-2-yl)piperidine-2,6-dione], for which, in the assay with JeKo-1 cells, the pIC50 was greater than 6.00. The pIC50 with Mino cells is greater than 6.00. For the same compound, at BTK [1], the DC50 is less than 10 nM and the Dmax was greater than 90%. Further, the “degradation of BTK protein” value at BTK [4] is given as “dose-dependent degradation”.
